Laboratory results: patent US12606508B2, “Cannabis extracts and uses thereof” (priority 2020, dated 2026)

Test system: CD-1 mice
Experiment: Formalin test in mice
Assay type: in vivo
Conditions: 3 mg/kg, i.p., 20 min before formalin; n=5
Description: Formalin test in mice. Male CD-1 mice 6-8 weeks (Envigo, Italy), were housed under controlled conditions (12 h light/12 h dark cycle; temperature 20-22 C; humidity 55-60%) with chow and tap water available ad libitum. All surgeries and experimental procedures were approved by the Animal Ethics Committee of University of Campania “L. Vanvitelli” (Naples). Animal care was in compliance with Italian (D.L. 116/92) and European Commission (O.J. of E.C. L358/1 18/12/86) regulations on the protection of laboratory animals. All efforts were made to minimize animal suffering and to reduce the number of animals used. All the experiments were performed in a randomized manner by the same operator blind to pharmacological treatments. Mice weighing 28-32 g were used after 1 week-acclimation period and received formalin (1.25% in saline, 30 μL) in the dorsal surface of one side of the hind-paw. Each mouse, randomly assigned to one of the experimental groups (n=5), was placed in a plexiglass cage and allowed to move freely for 15-20 min. A mirror was placed at a 45° angle under the cage to allow full view of the hind-paws. Lifting, favoring, licking, shaking and flinching of the injected paw were recorded as nocifensive behavior.^61 The total time of the nociceptive response was measured every 5 min for 60 minutes and expressed in min (mean±SEM). Mice received vehicle (0.5% DMSO in saline) or different doses of Δ^9-THCB (2, 3 and 5 mg/kg, i.p.) 20 min before formalin injection alone or in combination with AM251 (0.5 mg/kg, i.p.) or AM630 (1 mg/kg, i.p.). The antagonists were administered 10 min before drugs injection.
Statistics for in vivo experiments. Data are represented as means±standard error of the mean (S.E.M). Statistical analysis of the data was performed by analysis of variance two-way ANOVA followed by Bonferroni post hoc or Dunnett's multiple comparison test. All statistical analyses were performed by using GraphPAD software (San Diego, California). Differences were considered significant at p<0.05.

## CCCCc1cc(O)c2c(c1)OC(C)(C)[C@@H]1CCC(C)=C[C@@H]21 [Δ^9-THCB, (6aR,10aR)-3-butyl-6,6,9-trimethyl-6a,7,8,10a-tetrahydro-6H-benzo[c]chromen-1-ol]
  nociceptive response in formalin test (first phase 0-7 min, second phase 15-60 min): reduced both first and second phase of formalin test
